Results reported in patent US12433935B2, “Producing method of mesenchymal stem cell for prevention or treatment of brain neuronal disease including ghrelin treatment and use thereof” (Samsung Life Public Welfare Foundation, priority 2020, dated 2025).
No end group written: not given here.

Legend:
AgRP gene = experiment: AgRP expression in mesenchymal stem cells (WJ-MSC) treated with ghrelin, real-time PCR; assay type: cell-based, human
Experimental: An experiment was conducted to identify the effect on the expression of AgRP (Agouti related peptide) known as a therapeutic agent for brain neuronal disease such as Alzheimer's disease in mesenchymal stem cells when the mesenchymal stem cells were directly treated with ghrelin. WJ-MSCs were thawed in a 175T flask and stabilized for 3 days, and then cultured for 2 days in MEM alpha medium (Gibco, 12571063) to which 10% FBS (Biowest, S1480) and 5 μg/ml gentamicin were added. Thereafter, the WJ-MSCs were seeded, at 0.8×10^6, on a 6-well plate under 10% FBS conditions and incubated for 1 day. After the incubation, the WJ-MSCs were treated with human recombinant ghrelin (Phoenix Pharmaneuticals, 031-30) at concentrations of 0, 10 pM, 1 nM, and 100 nM, respectively, under FBS-free conditions. Cells were collected after 6 and 12 hours, respectively. The collected WJ-MSC was treated with Trizol, and mRNA was extracted therefrom. Then, real-time PCR analysis thereof was performed using human AgRP Primer. The results of treatment of the cells with human recombinant ghrelin at various concentrations for 6 hours are shown in FIG. 2A. The results of treatment of the cells with human recombinant ghrelin at various concentrations for 12 hours are shown in FIG. 2B.

mouse AgRP gene = experiment: AgRP expression in mHYPOE-N46 mouse hypothalamus cell line treated with ghrelin, real-time PCR; assay type: cell-based; conditions: mHYPOE-N46 cells, 0, 10 pM, 1 nM, 100 nM, 6 or 12 hours, primers mAgRP1 and mAgRP2 (FIG. 3A-3D)
Experimental: An experiment was conducted to identify the change in AgRP expression level when the mouse hypothalamus cell line was directly treated with the mouse/rat recombinant ghrelin. Specifically, mHYPOE-N46 mouse hypothalamus cell line was thawed in a 175T flask and stabilized for 3 days, and then was incubated for two days in DMEM high glucose medium (Gibco, 11965-092) supplemented with 10% FBS (Biowest, 51480) and penicillin-streptomycin (Gibco, 15140122). Under 10% FBS conditions, the cells are seeded, at 0.8×10^6, in a 6 well plate and incubated for 1 day. After the incubation, the cells were treated with mouse/rat recombinant ghrelin (Phoenix Pharmaneuticals, 031-31) at concentrations of 0, 10 pM, 1 nM, and 100 nM, respectively, in FBS-free conditions. Cells were collected after 6 and 12 hours, respectively. The collected cells were treated with Trizol. mRNA was extracted therefrom. Then, real-time PCR analysis thereof was performed using two mouse AgRP primer pairs. […] After direct treatment of the cells with ghrelin for 6 or 12 hours, the expression of mAgRP was analyzed. In addition, the results of mouse AgRP expression analysis according to ghrelin treatment time using primer mAgRP2 are shown in FIG. 3C and FIG. 3D.

human recombinant ghrelin: human recombinant ghrelin (Phoenix Pharmaneuticals, 031-30); hormone that increases appetite (GSSFLSPEHQRVQQRKESKKPPAKLQPR; ends and bridges not checked; UniProt Q9UBU3 24-51, looked up)
expression of AgRP gene (AgRP gene; WJ-MSC, 0, 10 pM, 1 nM, 100 nM, FBS-free, 6 hours and 12 hours (FIG. 2A, 2B)): increased based on the treatment concentration | expression of AgRP (AgRP gene; WJ-MSC, 100 nM concentration, 6 and 12 hours): significantly increased

mouse ghrelin: mouse/rat recombinant ghrelin (Phoenix Pharmaneuticals, 031-31) (GSSFLSPEHQKAQQRKESKKPPAKLQPR; ends and bridges not checked; UniProt Q9EQX0 24-51, looked up)
expression of mouse AgRP gene (mouse AgRP gene): increased according to the concentration of ghrelin
